From US20100168167A1, “Piperidinones Useful in the Treatment of Inflammation” (priority 2007, published 2010) come the findings set out here.

The target in this experiment is T1, PDE4 enzyme (U937 lysate or recombinant hPDE4).
T1 construct: cDNA containing PDE4D1 was cloned into a baculovirus vector, insect cells (SF9) were then infected and cells cultured to express the PDE4 protein
The experiment is described as follows: In vitro inhibition of PDE4, Method A ([3H]cAMP SPA enzyme assay). The note with it: Biological Example 1, Method A. The class given is biochemical, human. Here is the method:
PDE4 U937 cytoplasmic extracts were prepared by a modified procedure of the assay described in MacKenzie, S. J. and Houslay, M. D., “Action of rolipram on specific PDE4 cAMP phosphodiesterase isoforms and on the phosphorylation of cAMP-response-element-binding protein (CREB) and p38 mitogen-activated protein (MAP) kinase in U937 monocytic cells”, Biochem J. (2000), 347(Pt 2):571-8, by lysis of U937 cells (ATCC: Catalogue No. CRL-159) in M-PER Lysis buffer (Pierce) containing 10% protease inhibitor cocktail (Sigma). The cell lysates were then centrifuged at 30,000 rpm for 15 minutes at 4° C. The supernatants were aliquoted and stored at −80° C.
An alternative source of PDE4 enzymes was from recombinant human PDE4 obtained from baculovirus-SF9 cells expression system. cDNA containing PDE4D1 was cloned into a baculovirus vector, insect cells (SF9) were then infected and cells cultured to express the PDE4 protein. The cells were lysed and used directly in assay or partially purified using standard procedures. The process can be used for other PDE4 and PDE enzymes.
Compounds of the invention were evaluated for inhibitory activity against PDE4 enzymes by the following assay Method A or B.
PDE4 assay based on modified procedure of Phosphodiesterase [^3H]cAMP SPA Enzyme Assay (Amersham Biosciences, code TRKQ 7090). In this assay, PDE4 enzymes converts [^3H]cAMP to [^3H]5′-AMP. The assay is quenched by the addition of SPA yttrium silicate beads which preferentially bind linear nucleotides over cyclic nucleotides in the presence of zinc sulphate.
Reactions were performed in duplicate by the addition of 10 μl PDE4 enzyme (U937 lysate or recombinant hPDE4) to 20 μL of assay mix and 20 μL of test compounds in Isoplates (Wallac) for 30 minutes, at 37° C. The final assay mixture contained: 50 mM Tris (pH 7.5), 8.3 mM MgCl2, 1.7 mM EGTA and [^3H]cAMP (0.025 μCi) (Amersham). Assay was terminated by addition 25 μL SPA beads. The plate was sealed, shaken for 1 minute and then allowed to settle 30 minutes and the cpm determined using a Wallac Micobeta.
What is called IC50 is the concentration that gives 50% inhibition. Regarding `COc1ccc([C@H]2CNC(=O)C(CC(=O)Nc3cccnc3)C2)cc1OC1CCCC1` (stereo partly drawn) [2-((5S)-5-(3-(cyclopentyloxy)-4-methoxyphenyl)-2-oxopiperidin-3-yl)-N-(pyridin-3-yl)acetamide], the IC50 stood at 0.456 µM.
For the compound `COc1ccc([C@H]2CNC(=O)C(CC(=O)O)C2)cc1OC1CCCC1` (stereo partly drawn) [2-((5S)-5-(3-(cyclopentyloxy)-4-methoxyphenyl)-2-oxopiperidin-3-yl)acetic acid], the half-maximal inhibitory concentration (IC50) turned out to be 1.19 µM.
Next, `COc1ccc([C@H]2CNC(=O)[C@@H](CC3CCOC3)C2)cc1OC1CCCC1` (stereo partly drawn) [(3R,5S)-5-(3-(cyclopentyloxy)-4-methoxyphenyl)-3-((tetrahydrofuran-3-yl)methyl)piperidin-2-one]: 1.49 µM; `COc1ccc2oc(C[C@H]3C[C@@H](c4ccc(OC)c(OC5CCCC5)c4)CNC3=O)cc2c1` [(3R,5S)-5-(3-cyclopentyloxy-4-methoxyphenyl)-3-(5-methoxy-2-benzofurylmethyl)piperidin-2-one]: 0.373 µM; `COc1ccc([C@H]2CNC(=O)[C@@H](Cc3nc4cc([N+](=O)[O-])ccc4o3)C2)cc1OC1CCCC1` [(3R,5S)-5-(3-cyclopentyloxy-4-methoxyphenyl)-3-(5-nitro-2-benzoxazolylmethyl)piperidin-2-one]: 0.653 µM.
With `COc1ccc([C@H]2CNC(=O)[C@H](Cc3cccnc3)C2)cc1OC1CCCC1` [(3S,5S)-5-(3-(cyclopentyloxy)-4-methoxyphenyl)-3-(3-pyridinylmethyl)piperidin-2-one], the half-inhibitory concentration (IC50) was found to be 0.489 µM.
The result for `C=CCC1C[C@@H](c2ccc(OC)c(OC3CCCC3)c2)CNC1=O` (stereo partly drawn) [(5S)-3-allyl-5-(3-(cyclopentyloxy)-4-methoxyphenyl)piperidin-2-one] reads 0.29 µM.
For the compound `COc1ccc([C@H]2CNC(=O)C(CC(O)CO)C2)cc1OC1CCCC1` (stereo partly drawn) [(5S)-5-(3-(cyclopentyloxy)-4-methoxyphenyl)-3-(2,3-dihydroxypropyl)piperidin-2-one], the IC50 was 0.446 µM.
Next, `COc1ccc([C@H]2CNC(=O)C(CCNc3ccccc3)C2)cc1OC1CCCC1` (stereo partly drawn) [(5S)-5-(3-(cyclopentyloxy)-4-methoxyphenyl)-3-(2-(phenylamino)ethyl)piperidin-2-one]: 0.215 µM.
Take `COc1ccc([C@@H]2CCC(=O)N(C(=O)c3ccccc3)C2)cc1OC1CCCC1` [(S)-1-benzoyl-5-(3-(cyclopentyloxy)-4-methoxyphenyl)piperidin-2-one]: the IC50 amounted to 0.187 µM.
Next, `COc1ccc([C@@H]2CCC(=O)N(Cc3ccccc3)C2)cc1OC1CCCC1` [(S)-1-benzyl-5-(3-(cyclopentyloxy)-4-methoxyphenyl)piperidin-2-one]: 0.43 µM; `C=CCC1(CC=C)C[C@@H](c2ccc(OC)c(OC3CCCC3)c2)CNC1=O` [(S)-3,3-diallyl-5-(3-(cyclopentyloxy)-4-methoxyphenyl)piperidin-2-one]: 0.651 µM.
The result for `COc1ccc([C@@H]2CCC(=O)NC2)cc1-c1ccccc1` [(S)-5-(6-methoxybiphenyl-3-yl)piperidin-2-one] reads 0.146 µM; that for `COc1ccc([C@H]2CNC(=O)/C(=C/c3cccc(C)c3)C2)cc1OC1CCCC1` [(S,E)-5-(3-(cyclopentyloxy)-4-methoxyphenyl)-3-(3-methylbenzylidene)piperidin-2-one], 0.389 µM.
